Experiment [1] relates to Rattus norvegicus. Kind of experiment: Immunosuppressive activity in LEW rat model assessed as inhibition of WKAH rat spleen cells-induced popliteal lymph node swelling at 1 mg/kg, po administered qd for 4 days measured at day 4 by host versus graft reaction analysis. The settings on record: 96 h. It counts as functional.
Experiment [2] concerns the target Sphingosine 1-phosphate receptor 1 (Homo sapiens, UniProt P21453). Kind of experiment: Agonist activity at human S1P1 receptor assessed as stimulation of [35S]GTPgamma binding. It counts as functional.
The target of experiment [3] is Sphingosine 1-phosphate receptor 3 (Homo sapiens, UniProt Q99500). As to the kind of experiment: Agonist activity at human S1P3 receptor assessed as stimulation of [35S]GTPgamma binding. It counts as functional.
Experiment [4] is filed under the species Homo sapiens. As to the kind of experiment: Selectivity ratio of EC50 for human S1P3 receptor to EC50 for human S1P1 receptor.
Experiment [5] has as its system Rattus norvegicus. Kind of experiment: Immunosuppressive activity in po dosed LEW rat model assessed as inhibition of WKAH rat spleen cells-induced popliteal lymph node swelling administered qd for 4 days measured at day 4 by host versus graft reaction analysis. It counts as functional. The conditions noted are these: 96 h, read-out: ID50 (the source's name).

pEC50: −log10 of the molar value.

Sphingosine 1-phosphate receptor 1, sequence (P21453 whole entry): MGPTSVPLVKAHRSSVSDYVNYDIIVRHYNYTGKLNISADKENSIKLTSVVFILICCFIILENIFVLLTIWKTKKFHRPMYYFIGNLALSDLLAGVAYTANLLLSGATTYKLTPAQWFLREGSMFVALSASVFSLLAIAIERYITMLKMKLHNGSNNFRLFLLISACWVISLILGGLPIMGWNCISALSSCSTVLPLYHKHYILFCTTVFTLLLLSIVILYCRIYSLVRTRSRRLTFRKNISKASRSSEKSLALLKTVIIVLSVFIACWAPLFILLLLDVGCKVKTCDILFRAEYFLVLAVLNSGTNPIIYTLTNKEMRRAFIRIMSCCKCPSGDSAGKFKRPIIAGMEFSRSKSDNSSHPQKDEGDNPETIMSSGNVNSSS
Sphingosine 1-phosphate receptor 3, sequence (Q99500 whole entry): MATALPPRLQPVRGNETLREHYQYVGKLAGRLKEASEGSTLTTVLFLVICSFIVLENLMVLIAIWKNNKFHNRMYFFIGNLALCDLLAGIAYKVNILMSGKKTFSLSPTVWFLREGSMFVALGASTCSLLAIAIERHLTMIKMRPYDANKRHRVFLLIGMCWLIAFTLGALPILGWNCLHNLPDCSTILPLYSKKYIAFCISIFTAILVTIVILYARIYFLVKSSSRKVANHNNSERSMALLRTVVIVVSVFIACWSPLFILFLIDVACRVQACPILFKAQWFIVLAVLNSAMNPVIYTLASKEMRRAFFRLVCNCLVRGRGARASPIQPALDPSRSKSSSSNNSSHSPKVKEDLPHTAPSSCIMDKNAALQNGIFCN

With `CCc1ccccc1Oc1ccc(-c2nc(-c3sc(CN4CC(C(=O)O)C4)cc3CC)no2)cc1`, the inhibition in vivo (in general, the share of the control response that was lost under treatment) at 1 mg/kg in experiment [1] was 62%. Further, the negative logarithm of the EC50 (pEC50) – broadly, the negative decadic logarithm of the EC50, by convention in mol/L – in experiment [2] was 8.19; in experiment [3], 5.00.
Regarding `CCc1cc(CN2CC(C(=O)O)C2)sc1-c1noc(-c2ccc(Oc3ccccc3)cc2)n1`, the pEC50 is 8.40 in experiment [2] and < 4.70 in experiment [3]. Besides, the Ratio EC50 in experiment [4] was > 5000. In experiment [5], the ED50 turned out to be 0.407 mg/kg.
For `Cc1cc(-c2noc(-c3ccc(Oc4ccccc4)cc3)n2)sc1CN1CC(C(=O)O)C1`, the negative logarithm of the EC50 (pEC50) in experiment [2] was 7.60; in experiment [3], < 4.70. In addition, the Ratio EC50 in experiment [4] was > 800.
Taken in the same sequence, the figures for `Cc1cccc(Oc2ccc(-c3nc(-c4csc(CN5CC(C(=O)O)C5)c4)no3)cc2)c1` were 6.70, < 4.70 and > 100.
Taken in the same sequence, the figures for `O=C(O)C1CN(Cc2ccc(-c3noc(-c4cc(-c5ccccc5)c(C(F)(F)F)s4)n3)cc2)C1` were 8.38, 5.80 and 380.
Regarding `CCc1cc(CN2CC(C(=O)O)C2)sc1-c1noc(-c2ccc(Oc3ccccc3F)cc2)n1`, the pEC50 in experiment [2] is 8.07; in experiment [3] it was < 4.70. The ED50 in experiment [5] was determined as 0.369 mg/kg.
With `CCCc1ccccc1Oc1ccc(-c2nc(-c3sc(CN4CC(C(=O)O)C4)cc3CC)no2)cc1`, in experiment [1], the inhibition in vivo at 1 mg/kg amounted to 56%. In addition, the figures for the negative logarithm of the EC50 (pEC50) in experiment [2] and in experiment [3] were 7.89 and < 4.70, respectively.
For `CCc1cc(CN2CC(C(=O)O)C2)sc1-c1noc(-c2ccc(Oc3ccccc3)c(Cl)c2)n1` the same measures were 49%, 8.30 and < 4.70.
On to `Cc1cc(-c2nc(-c3csc(CN4CC(C(=O)O)C4)c3)no2)ccc1Oc1ccccc1`, for which the values for the pEC50 in experiment [2] and in experiment [3] were 7.68 and 5.52, respectively. Moreover, the Ratio EC50 in experiment [4] was found to be 142.
Take `O=C(O)C1CN(Cc2cc(-c3noc(-c4cccc(-c5ccccc5)c4)n3)cs2)C1`: the pEC50 in experiment [2] was 6.07; in experiment [3], < 4.70. For the same compound, in experiment [4], the Ratio EC50 is > 23.
As for `CCCCc1ccccc1Oc1ccc(-c2nc(-c3sc(CN4CC(C(=O)O)C4)cc3CC)no2)cc1`, the inhibition in vivo at 1 mg/kg in experiment [1] was 66%. For the same compound, the pEC50 in experiment [2] is 8.05; in experiment [3], < 4.70.
In the case of `O=C(O)C1CN(Cc2ccc(-c3noc(-c4ccc(Oc5ccccc5)cc4)n3)s2)C1`, the results for the negative-log EC50 (pEC50) in experiment [2] and in experiment [3] were 9.00 and 6.05, respectively. The Ratio EC50 in experiment [4] was 900.
As to `CCc1cc(CN2CC(C(=O)O)C2)sc1-c1noc(-c2ccc(Oc3ccccc3C)cc2)n1`, the inhibition in vivo at 1 mg/kg in experiment [1] is 35%. The pEC50 in experiment [2] was 8.52; in experiment [3] it was 5.35.
On to `O=C(O)C1CN(Cc2cc(-c3noc(-c4ccc(-c5ccccc5)cc4)n3)cs2)C1`, for which the pEC50 is 7.52 in experiment [2] and < 4.70 in experiment [3]. In addition, the Ratio EC50 in experiment [4] was > 666.
For `Cc1ccc(Oc2ccc(-c3nc(-c4csc(CN5CC(C(=O)O)C5)c4)no3)cc2)cc1` the same measures were 6.96, 4.92 and 109.
Consider `CCc1cc(CN2CC(C(=O)O)C2)sc1-c1noc(-c2ccc(Oc3ccccc3)c(OC)c2)n1`, for which the pEC50 in experiment [2] is 7.85; in experiment [3], < 4.70.
With `Cc1cc(Oc2ccccc2)ccc1-c1nc(-c2csc(CN3CC(C(=O)O)C3)c2)no1`, the pEC50 in experiment [2] is 6.22; in experiment [3] it was < 4.70. Also, in experiment [4], the Ratio EC50 was > 33.
Taken in the same sequence, the figures for `Cc1cc(CN2CC(C(=O)O)C2)sc1-c1noc(-c2ccc(Oc3ccccc3)cc2)n1` were 7.96, < 4.70 and > 1820.
For `CC(C)c1cc(CN2CC(C(=O)O)C2)sc1-c1noc(-c2ccc(Oc3ccccc3)cc2)n1` the same measures were 7.12, 4.82 and 200.
For `O=C(O)C1CN(Cc2cc(-c3noc(-c4ccc(OCc5ccccc5)cc4)n3)cs2)C1`, the negative-log EC50 (pEC50) in experiment [2] and in experiment [3] was < 4.70 in each case.
Consider `CCc1cc(CN2CC(C(=O)O)C2)sc1-c1noc(-c2ccc(Oc3ccccc3)c(C)c2)n1`, for which the pEC50 is 8.12 in experiment [2] and 5.22 in experiment [3].
With `O=C(O)C1CN(Cc2cc(-c3noc(-c4cc(-c5ccccc5)c(C(F)(F)F)s4)n3)cs2)C1`, the negative logarithm of the EC50 (pEC50) in experiment [2] is 8.19; in experiment [3], 6.10. Further, in experiment [4], the Ratio EC50 was found to be 123.
Taken in the same sequence, the figures for `O=C(O)C1CN(Cc2cc(-c3noc(-c4ccc(Oc5ccccc5)cc4)n3)cs2)C1` were 8.07, 5.34 and 541.
With `CCc1cc(CN2CC(C(=O)O)C2)sc1-c1noc(-c2ccc(Oc3ccccc3Cl)cc2)n1`, the pEC50 in experiment [2] was 8.19; in experiment [3] it was < 4.70. The ED50 in experiment [5] came to 0.461 mg/kg.
On to `CCc1cc(CN2CC(C(=O)O)C2)sc1-c1noc(-c2ccc(Oc3ccccc3)c(F)c2)n1`, for which the pEC50 in experiment [2] is 8.30; in experiment [3], < 4.70. In addition, the ED50 in experiment [5] is 0.142 mg/kg.
On to `CCCc1cc(CN2CC(C(=O)O)C2)sc1-c1noc(-c2ccc(Oc3ccccc3)cc2)n1`, for which the values for the pEC50 in experiment [2] and in experiment [3] were 7.52 and 4.89, respectively. For the same compound, the Ratio EC50 in experiment [4] was found to be 433.
For `CCc1cc(-c2noc(-c3ccc(Oc4ccccc4)cc3)n2)sc1CN1CC(C(=O)O)C1` the same measures were 7.92, < 4.70 and > 1670.
Taken in the same sequence, the figures for `CCCOc1ccc(-c2nc(-c3csc(CN4CC(C(=O)O)C4)c3)no2)cc1` were 7.22, < 4.70 and > 333.
Taken in the same sequence, the figures for `Cc1ccccc1Oc1ccc(-c2nc(-c3csc(CN4CC(C(=O)O)C4)c3)no2)cc1` were 7.46, 5.70 and 57.
Regarding `CCc1cc(CN2CC(C(=O)O)C2)sc1-c1noc(-c2ccc(Oc3ccccc3OC)cc2)n1`, in experiment [1], the inhibition in vivo at 1 mg/kg stood at 74%. Also, the negative-log EC50 (pEC50) in experiment [2] is 8.40; in experiment [3] it was 4.82.
For the compound `CCc1cc(CN2CC(C(=O)O)C2)sc1-c1noc(-c2ccc(Oc3ccccc3C(C)C)cc2)n1`, the negative logarithm of the EC50 (pEC50) in experiment [2] is 8.35; in experiment [3], 4.96.
In the case of `O=C(O)C1CN(Cc2csc(-c3noc(-c4ccc(Oc5ccccc5)cc4)n3)c2)C1`, the pEC50 is 7.47 in experiment [2] and < 4.70 in experiment [3]. Moreover, in experiment [4], the Ratio EC50 is > 588.

Values taken from ChEMBL document CHEMBL1949506, “Discovery of CS-2100, a potent, orally active and S1P3-sparing S1P1 agonist” (Bioorg Med Chem Lett, 2012).
